The target in test [1] is T1, human recombinant HDAC1 (Homo sapiens, UniProt Q13547).
T1 construct: purchased Enzo Life Science, Inc. BML-SE456
Put plainly: HDAC1 enzyme activity inhibition (HDAC Fluorimetric Drug Discovery Kit). To be noted: human recombinant HDAC1; IC50 calculated with GraphPad Prism; read-out: HDAC1. Format: biochemical. In outline: (§1)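 Each isoform is run in the same format: compound dilutions (5-fold steps), 10 μM substrate, […] enzyme, one hour at 30° C, then 30 minutes with developer before fluorescence readout.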

For test [2], the target named is T2, human recombinant HDAC6 (Homo sapiens, UniProt Q9UBN7).
T2 construct: purchased Calbiochem Inc. 382180
T2 sequence (Q9UBN7 1-1215): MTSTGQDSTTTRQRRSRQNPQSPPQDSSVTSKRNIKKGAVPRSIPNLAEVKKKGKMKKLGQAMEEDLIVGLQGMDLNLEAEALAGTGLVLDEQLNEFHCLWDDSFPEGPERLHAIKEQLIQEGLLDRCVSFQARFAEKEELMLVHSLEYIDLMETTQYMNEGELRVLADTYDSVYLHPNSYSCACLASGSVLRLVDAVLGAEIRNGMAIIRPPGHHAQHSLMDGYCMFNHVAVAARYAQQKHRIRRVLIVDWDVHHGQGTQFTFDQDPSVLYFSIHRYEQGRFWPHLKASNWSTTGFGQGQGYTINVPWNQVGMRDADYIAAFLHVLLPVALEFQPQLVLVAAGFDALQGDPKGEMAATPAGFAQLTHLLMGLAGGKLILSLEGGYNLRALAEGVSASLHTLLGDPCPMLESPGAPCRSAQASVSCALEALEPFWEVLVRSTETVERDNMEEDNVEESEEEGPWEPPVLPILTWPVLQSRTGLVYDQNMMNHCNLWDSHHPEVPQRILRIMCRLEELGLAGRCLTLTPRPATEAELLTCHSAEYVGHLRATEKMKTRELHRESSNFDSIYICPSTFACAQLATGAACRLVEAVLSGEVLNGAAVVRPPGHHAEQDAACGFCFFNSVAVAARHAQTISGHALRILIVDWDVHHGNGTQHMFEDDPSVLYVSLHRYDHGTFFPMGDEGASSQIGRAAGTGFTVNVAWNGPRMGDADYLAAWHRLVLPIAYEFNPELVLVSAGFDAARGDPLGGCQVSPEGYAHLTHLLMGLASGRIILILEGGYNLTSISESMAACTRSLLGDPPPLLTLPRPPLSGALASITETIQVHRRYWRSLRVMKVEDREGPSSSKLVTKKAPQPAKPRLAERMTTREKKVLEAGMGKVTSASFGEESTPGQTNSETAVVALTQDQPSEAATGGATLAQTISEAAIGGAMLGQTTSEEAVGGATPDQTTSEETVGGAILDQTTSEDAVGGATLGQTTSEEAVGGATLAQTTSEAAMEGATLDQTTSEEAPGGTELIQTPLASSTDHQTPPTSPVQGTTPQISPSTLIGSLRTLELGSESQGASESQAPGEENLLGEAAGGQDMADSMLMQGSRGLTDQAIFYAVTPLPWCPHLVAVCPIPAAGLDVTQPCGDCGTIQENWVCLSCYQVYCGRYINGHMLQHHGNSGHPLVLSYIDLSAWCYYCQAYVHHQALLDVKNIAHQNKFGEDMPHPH
Nature of the test: HDAC6 enzyme activity inhibition (HDAC Fluorimetric Drug Discovery Kit). In kind it is biochemical. As to conditions: for HDAC6 selectivity (fold): HDAC1 IC50 / HDAC6 IC50; for IC50: human recombinant HDAC6, IC50 calculated with GraphPad Prism. Summed up:
as §1

The text below walks through data of US20230257372A1 (CHONG KUN DANG PHARMACEUTICAL CORP., priority 2020, published 2023).

The structures appear in SMILES notation.

T1 sequence (Q13547 whole entry): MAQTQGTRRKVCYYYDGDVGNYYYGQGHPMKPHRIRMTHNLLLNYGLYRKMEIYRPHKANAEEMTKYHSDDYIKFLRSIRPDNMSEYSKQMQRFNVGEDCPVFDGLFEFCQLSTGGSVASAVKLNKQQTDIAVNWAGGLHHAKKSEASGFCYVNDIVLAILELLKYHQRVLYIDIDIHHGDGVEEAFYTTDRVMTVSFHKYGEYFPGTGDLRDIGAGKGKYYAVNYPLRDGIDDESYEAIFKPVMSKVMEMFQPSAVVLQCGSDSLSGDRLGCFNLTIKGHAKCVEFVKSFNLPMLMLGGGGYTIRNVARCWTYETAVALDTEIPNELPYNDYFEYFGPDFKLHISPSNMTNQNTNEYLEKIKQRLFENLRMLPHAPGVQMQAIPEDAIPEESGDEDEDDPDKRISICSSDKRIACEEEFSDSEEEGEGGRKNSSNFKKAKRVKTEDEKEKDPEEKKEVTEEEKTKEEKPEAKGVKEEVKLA

Turning to `FC(F)c1nnc(-c2ccc(Cn3cc(-c4cccc(CN5CCC5)c4)nn3)nc2)o1` [Compound 3963, 2-(6-((4-(3-(azetidin-1-ylmethyl)phenyl)-1H-1,2,3-triazol-1-yl)methyl)pyridin-3-yl)-5-(difluoromethyl)-1,3,4-oxadiazole], the IC50 in test [1] was > 50000 nM. Besides, in test [2], the “HDAC6 selectivity (fold)” value is 841 fold and the IC50 was 59.4 nM.

`FC1CN(Cc2cccc(-c3cn(Cc4ccc(-c5nnc(C(F)F)o5)cn4)nn3)c2)C1` [Compound 3964, 2-(difluoromethyl)-5-(6-((4-(3-((3-fluoroazetidin-1-yl)methyl)phenyl)-1H-1,2,3-triazol-1-yl)methyl)pyridin-3-yl)-1,3,4-oxadiazole]: the IC50 in test [1] was > 50000 nM. Also, in test [2], the “HDAC6 selectivity (fold)” value was 1908 fold and the IC50 was 26.2 nM.

As to `FC(F)c1nnc(-c2ccc(Cn3cc(-c4cccc(CN5CC6(COC6)C5)c4)nn3)nc2)o1` [Compound 3965, 6-(3-(1-((5-(5-(difluoromethyl)-1,3,4-oxadiazol-2-yl)pyridin-2-yl)methyl)-1H-1,2,3-triazol-4-yl)benzyl)-2-oxa-6-azaspiro[3.3]heptane], the IC50 is > 50000 nM in test [1] and 35.9 nM in test [2]. Further, the “HDAC6 selectivity (fold)” value in test [2] was determined as 1392 fold.

Turning to `FC(F)c1nnc(-c2ccc(Cn3cc(-c4cccc(CN5CCCC5)c4)nn3)nc2)o1` [Compound 3966, 2-(difluoromethyl)-5-(6-((4-(3-(pyrrolidin-1-ylmethyl)phenyl)-1H-1,2,3-triazol-1-yl)methyl)pyridin-3-yl)-1,3,4-oxadiazole], the IC50 in test [1] was > 50000 nM. For the same compound, in test [2], the “HDAC6 selectivity (fold)” value was 1694 fold and the IC50 was 29.5 nM.

Turning to `FC(F)c1nnc(-c2ccc(Cc3nnc(-c4ccccc4)o3)cc2)o1` [Compound 3980, 2-(difluoromethyl)-5-(4-((5-phenyl-1,3,4-oxadiazol-2-yl)methyl)phenyl)-1,3,4-oxadiazole], the IC50 in test [1] is > 50000 nM. Further, in test [2], the “HDAC6 selectivity (fold)” value is 272 fold and the IC50 is 184 nM.

As for `Cn1c(Cc2ccc(-c3nnc(C(F)F)o3)cc2)nnc1-c1ccccc1` [Compound 3981, 2-(difluoromethyl)-5-(4-((4-methyl-5-phenyl-4H-1,2,4-triazol-3-yl)methyl)phenyl)-1,3,4-oxadiazole], the IC50 in test [1] was > 50000 nM. Further, in test [2], the “HDAC6 selectivity (fold)” value came out at 41 fold and the IC50 was 1200 nM.

As for `CCN1CCN(c2cccc(-c3cn(Cc4ccc(-c5nnc(C(F)F)o5)cn4)nn3)c2)CC1` [Compound 3988, 2-(difluoromethyl)-5-(6-((4-(3-(4-ethylpiperazin-1-yl)phenyl)-1H-1,2,3-triazol-1-yl)methyl)pyridin-3-yl)-1,3,4-oxadiazole], the IC50 in test [1] is > 50000 nM. In test [2], the “HDAC6 selectivity (fold)” value is recorded as 4716 fold and the IC50 was 10.6 nM.

For `FC(F)c1nnc(-c2ccc(Cn3cc(-c4cccc(N5CCN(C6COC6)CC5)c4)nn3)nc2)o1` [Compound 3989, 2-(difluoromethyl)-5-(6-((4-(3-(4-(oxetan-3-yl)piperazin-1-yl)phenyl)-1H-1,2,3-triazol-1-yl)methyl)pyridin-3-yl)-1,3,4-oxadiazole], in test [1], the IC50 was > 50000 nM. In test [2], the “HDAC6 selectivity (fold)” value amounted to 1597 fold and the IC50 is 31.3 nM.

As for `CC(C)(C)OC(=O)N1CCC(F)(c2cn(Cc3ccc(-c4nnc(C(F)F)o4)cn3)nn2)CC1` [Compound 3999, Tert-butyl 4-(1-((5-(5-(difluoromethyl)-1,3,4-oxadiazol-2-yl)pyridin-2-yl)methyl)-1H-1,2,3-triazol-4-yl)-4-fluoropiperidin-1-carboxylate], in test [1], the IC50 was > 50000 nM. Further, in test [2], the “HDAC6 selectivity (fold)” value is 575 fold and the IC50 was 86.9 nM.

`CC(C)(C)OC(=O)N1CCC(Cc2cn(Cc3ccc(-c4nnc(C(F)F)o4)cn3)nn2)CC1` [Compound 4000, Tert-butyl 4-((1-((5-(5-(difluoromethyl)-1,3,4-oxadiazol-2-yl)pyridin-2-yl)methyl)-1H-1,2,3-triazol-4-yl)methyl)piperidin-1-carboxylate]: the IC50 in test [1] is > 50000 nM. In test [2], the “HDAC6 selectivity (fold)” value amounted to 145 fold and the IC50 was 343 nM.

As for `CC(C)(C)OC(=O)N1CCC(c2cccc(-c3cn(Cc4ccc(-c5nnc(C(F)F)o5)cn4)nn3)c2)CC1` [Compound 4001, tert-butyl 4-(3-(1-((5-(5-(difluoromethyl)-1,3,4-oxadiazol-2-yl)pyridin-2-yl)methyl)-1H-1,2,3-triazol-4-yl)phenyl)piperidin-1-carboxylate], in test [1], the IC50 is > 50000 nM. In addition, in test [2], the “HDAC6 selectivity (fold)” value is listed as 296 fold and the IC50 is 169 nM.

In the case of `CCN1CCCC(c2cn(Cc3ccc(-c4nnc(C(F)F)o4)cn3)nn2)C1` (stereo not drawn) [Compound 4002, 2-(difluoromethyl)-5-(6-((4-(1-ethylpiperidin-3-yl)-1H-1,2,3-triazol-1-yl)methyl)pyridin-3-yl)-1,3,4-oxadiazole], in test [1], the IC50 was > 50000 nM. Further, in test [2], the “HDAC6 selectivity (fold)” value is reported as 96 fold and the IC50 is 520 nM.

Turning to `FC(F)c1nnc(-c2ccc(Cn3cc(C4CCCN(C5COC5)C4)nn3)nc2)o1` (stereo not drawn) [Compound 4003], the IC50 in test [1] was > 50000 nM. Besides, in test [2], the “HDAC6 selectivity (fold)” value is recorded as 103 fold and the IC50 is 484 nM.

Regarding `CC(=O)N1CCCC(c2cn(Cc3ccc(-c4nnc(C(F)F)o4)cn3)nn2)C1` (stereo not drawn) [Compound 4004, 1-(3-(1-((5-(5-(difluoromethyl)-1,3,4-oxadiazol-2-yl)pyridin-2-yl)methyl)-1H-1,2,3-triazol-4-yl)piperidin-1-yl)ethan-1-one], the IC50 in test [1] is > 50000 nM. For the same compound, in test [2], the “HDAC6 selectivity (fold)” value is listed as 150 fold and the IC50 was 332 nM.

As for `CN1CCC(F)(c2cn(Cc3ccc(-c4nnc(C(F)F)o4)cn3)nn2)CC1` [Compound 4005, 2-(difluoromethyl)-5-(6-((4-(4-fluoro-1-methylpiperidin-4-yl)-1H-1,2,3-triazol-1-yl)methyl)pyridin-3-yl)-1,3,4-oxadiazole], the IC50 in test [1] is > 50000 nM; in test [2], 132 nM. The “HDAC6 selectivity (fold)” value in test [2] was found to be 379 fold.

As for `CCN1CCC(F)(c2cn(Cc3ccc(-c4nnc(C(F)F)o4)cn3)nn2)CC1` [Compound 4006, 2-(difluoromethyl)-5-(6-((4-(1-ethyl-4-fluoropiperidin-4-yl)-1H-1,2,3-triazol-1-yl)methyl)pyridin-3-yl)-1,3,4-oxadiazole], the IC50 in test [1] is > 50000 nM. Moreover, in test [2], the “HDAC6 selectivity (fold)” value came out at 375 fold and the IC50 was 133 nM.

With `CC(C)N1CCC(F)(c2cn(Cc3ccc(-c4nnc(C(F)F)o4)cn3)nn2)CC1` [Compound 4007, 2-(difluoromethyl)-5-(6-((4-(4-fluoro-1-isopropylpiperidin-4-yl)-1H-1,2,3-triazol-1-yl)methyl)pyridin-3-yl)-1,3,4-oxadiazole], the IC50 in test [1] is > 50000 nM; in test [2] it was 17.4 nM. In test [2], the “HDAC6 selectivity (fold)” value stood at 2873 fold.

Consider `FC(F)c1nnc(-c2ccc(Cn3cc(C4(F)CCN(C5COC5)CC4)nn3)nc2)o1` [Compound 4008, 2-(difluoromethyl)-5-(6-((4-(4-fluoro-1-(oxetan-3-yl)piperidin-4-yl)-1H-1,2,3-triazol-1-yl)methyl)pyridin-3-yl)-1,3,4-oxadiazole], for which the IC50 in test [1] was > 50000 nM. In test [2], the “HDAC6 selectivity (fold)” value is 408 fold and the IC50 was 122 nM.

Consider `CC(=O)N1CCC(F)(c2cn(Cc3ccc(-c4nnc(C(F)F)o4)cn3)nn2)CC1` [Compound 4009, 1-(4-(1-((5-(5-(difluoromethyl)-1,3,4-oxadiazol-2-yl)pyridin-2-yl)methyl)-1H-1,2,3-triazol-4-yl)-4-fluoropiperidin-1-yl)ethan-1-one], for which, in test [1], the IC50 was > 50000 nM. In test [2], the “HDAC6 selectivity (fold)” value was found to be 405 fold and the IC50 is 123 nM.
